Results as given in paper PMC6753678, “Fueling Open Innovation for Malaria Transmission-Blocking Drugs: Hundreds of Molecules Targeting Early Parasite Mosquito Stages” (Frontiers in Microbiology, 2019).

Assays:
[1] = tested on: P. falciparum female gametocytes; experiment: P. falciparum female gametogenesis assay (Pf FGAA); conditions: 1: YES; 0: NO; >10-fold selectivity over cytotox
[2] = tested on: P. falciparum female gametocytes; set-up: method as in Miguel-Blanco et al 2017; conditions: ref Miguel-Blanco et al 2017; read-out: Pf FGAA IC50; cited from earlier work
HepG2 cells = experiment: HepG2 cytotoxicity assay; conditions: unified HepG2 cytotoxicity across the three screens
Procedure, shortened: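 Percent inhibition derived from fluorescent viability readout, normalised to DMSO (negative) and 50 μM doxorubicin (positive). Compound incubation lasted 48 h at 37°C, 5% CO2, with 2,500 HepG2 cells/well in MEM plus 10% FBS and 1% NEAA.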

SMILES | Is compound selective in assay? Pf FGAA active? [1] | IC50 [2] | Unified cytotox (HepG2 cells)
O=C(CCC1CCCC1)N(Cc1ccc(-c2ccc(CNCCc3ccccc3)cc2)cc1)C1CCCNC1.O=C(O)C(F)(F)F (stereo not drawn) [TCMDC-141444] | 0 (0: NO) | 1980 nM | 5.19 µM
CC(Cc1ccc(NS(=O)(=O)c2ccc(CC(C)NCCc3cccc(Cl)c3)cc2)cc1)NCCc1cccc(Cl)c1 (stereo not drawn) [TCMDC-139797] | 0 (0: NO) | 1840 nM | 4.37 µM
Clc1ccc(Nc2nc(NCc3ccccc3)nc(N/N=C/c3ccccn3)n2)cc1 [TCMDC-138557] | 1 (1: YES) | 260 nM | 13.96 µM
CC(Cc1ccc(NC(=O)c2ccc(CC(C)NCc3ccc(Cl)cc3)cc2)cc1)NCCc1cccc(Cl)c1 (stereo not drawn) [TCMDC-139810] | 0 (0: NO) | 860 nM | 4.03 µM
N=C(N)Nc1nc(-c2ccc(NCc3ccc(CNc4cccc(-c5csc(NC(=N)N)n5)c4)cc3)cc2)cs1 [TCMDC-140699] | 0 (0: NO) | 900 nM | 4.79 µM
CC(C)Cn1cc(C2CCN(CCN3CCC(CNC(=O)c4ccc(-c5ccc(C(F)(F)F)cc5)cc4)CC3)CC2)c2ccccc21 [TCMDC-138852] | 0 (0: NO) | 880 nM | 4.80 µM
CC(Cc1ccc(NC(=O)c2ccc(CNCCCCc3ccccc3)cc2)cc1)NCCc1cccc(Cl)c1.Cl (stereo not drawn) [TCMDC-139866] | 0 (0: NO) | 1120 nM | 1.97 µM
COc1cccc(C23N=C(Nc4nc5ccccc5[nH]4)NC2(c2cccc(OC)c2)NC(Nc2nc4ccccc4[nH]2)=N3)c1 (stereo not drawn) [TCMDC-139087] | 1 (1: YES) | 90 nM | 40.74 µM
CN(C)CCOc1ccc(NC(=O)NC(C)(C)c2nc(-c3ccc(Cl)c(O)c3)c(-c3ccncc3)[nH]2)cc1.Cl [TCMDC-140744] | 1 (1: YES) | 730 nM | 14.30 µM
CC(C)(C)c1ccc(CNCCOc2ccc(Nc3nnc(-c4ccc(-c5ncc[nH]5)cc4)o3)c3ccccc23)cc1.O=C(O)C(F)(F)F [TCMDC-138667] | 0 (0: NO) | 620 nM | 5.96 µM
Nc1cc2c(C3CCN(CC4CCN(C(=O)/C=C/c5ccc(Cl)c(Cl)c5)CC4)CC3)c[nH]c2cn1 [TCMDC-140133] | 0 (0: NO) | 1970 nM | 6.24 µM
COC(=O)c1ccc(-c2ccc(C(=O)NCC3CCN(c4nc(N)c5cc(OC)c(OC)cc5n4)CC3)cc2)cc1 [TCMDC-138721] | 0 (0: NO) | 910 nM | 6.10 µM
c1ccc(-c2nc(Nc3nc4ccccc4[nH]3)[nH]c2-c2ccccc2)cc1 [TCMDC-139099] | 1 (1: YES) | 580 nM | 10.98 µM
CC1(CCN2CCC(c3c[nH]c4cnccc34)CC2)CCCc2c(Br)cccc2C1=O.Cl (stereo not drawn) [TCMDC-141171] | 0 (0: NO) | 1730 nM | 5.25 µM
CN1CCN(c2ccc(Nc3ncc([N+](=O)[O-])c(Nc4ccccc4O)n3)cc2)CC1.O=C(O)C(F)(F)F [TCMDC-141372] | 0 (0: NO) | 2010 nM | 1.82 µM
Cc1ccc(Cn2nc(Cl)c(N3CCCNCC3)cc2=O)cc1NC(=O)Nc1ccc(-c2ccccc2)cc1.O=C(O)C(F)(F)F [TCMDC-141697] | 0 (0: NO) | 990 nM | 7.25 µM
CCc1ccc(C2CCN(CCCCNC(=O)c3ccc(NC(=O)c4ccc(Cl)cc4)cc3)CC2)c(OCCO)c1 [TCMDC-138703] | 0 (0: NO) | 2250 nM | 5.37 µM
